Reference: ChEMBL document CHEMBL3734732, “Pyrrole- and indole-containing tranylcypromine derivatives as novel lysine-specific demethylase 1 inhibitors active on cancer cells” (Medchemcomm, 2015)

Key:
LSD1/CoREST complex = LSD1/CoREST complex (Homo sapiens, UniProt O60341); assay: Inhibition of human recombinant LSD1/CoREST protein expressed in Escherichia coli using monomethylated H3-K4 peptide (21 amino acids) as substrate preincubated for 15 mins followed by substrate addition measured for 12 mins by HRP-coupled Ultrared detection system-based fluorescence analysis
[1] = biological target: T1, Amine oxidase [flavin-containing] B (Homo sapiens, UniProt P27338); assay: Inhibition of human recombinant MAO B expressed in Pichia pastoris using benzylamine as substrate preincubated for 15 mins followed by substrate addition by horseradish peroxidase coupled-spectrofluorimetric assay
T1 sequence (P27338 whole entry): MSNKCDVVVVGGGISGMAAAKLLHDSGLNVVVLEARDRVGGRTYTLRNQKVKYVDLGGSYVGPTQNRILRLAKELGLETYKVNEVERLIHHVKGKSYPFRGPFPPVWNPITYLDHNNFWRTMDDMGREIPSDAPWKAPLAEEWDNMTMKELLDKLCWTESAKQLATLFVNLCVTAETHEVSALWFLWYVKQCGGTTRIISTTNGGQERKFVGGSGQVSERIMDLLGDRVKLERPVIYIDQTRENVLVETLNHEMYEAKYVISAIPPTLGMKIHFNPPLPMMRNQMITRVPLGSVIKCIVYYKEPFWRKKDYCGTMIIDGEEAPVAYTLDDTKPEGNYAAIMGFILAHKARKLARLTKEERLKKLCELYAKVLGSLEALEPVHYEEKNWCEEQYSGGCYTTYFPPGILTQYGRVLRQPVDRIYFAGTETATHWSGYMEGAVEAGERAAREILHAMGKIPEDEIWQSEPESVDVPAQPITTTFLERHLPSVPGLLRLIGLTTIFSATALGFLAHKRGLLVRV

[2] = Cytotoxicity against human NB4 cells assessed as growth inhibition at 100 uM after 72 hrs by CellTiter-Fluor Cell Viability assay; format: functional; details: NB-4, 72 h
[3] = biological target: Lysine-specific histone demethylase 1A (Homo sapiens) (UniProt O60341); assay: Inhibition of LSD1 in human NB4 cells assessed as induction of GFI-1b mRNA expression at IC50 after 24 hrs by quantitative RT-PCR analysis relative to vehicle-treated control; format: cell-based; details: NB-4
[4] = biological target: T2, Amine oxidase [flavin-containing] A (Homo sapiens, UniProt P21397); assay: Inhibition of human recombinant MAO A expressed in Pichia pastoris using kynuramine as substrate preincubated for 15 mins followed by substrate addition by horseradish peroxidase coupled-spectrofluorimetric assay
T2 sequence (P21397 whole entry): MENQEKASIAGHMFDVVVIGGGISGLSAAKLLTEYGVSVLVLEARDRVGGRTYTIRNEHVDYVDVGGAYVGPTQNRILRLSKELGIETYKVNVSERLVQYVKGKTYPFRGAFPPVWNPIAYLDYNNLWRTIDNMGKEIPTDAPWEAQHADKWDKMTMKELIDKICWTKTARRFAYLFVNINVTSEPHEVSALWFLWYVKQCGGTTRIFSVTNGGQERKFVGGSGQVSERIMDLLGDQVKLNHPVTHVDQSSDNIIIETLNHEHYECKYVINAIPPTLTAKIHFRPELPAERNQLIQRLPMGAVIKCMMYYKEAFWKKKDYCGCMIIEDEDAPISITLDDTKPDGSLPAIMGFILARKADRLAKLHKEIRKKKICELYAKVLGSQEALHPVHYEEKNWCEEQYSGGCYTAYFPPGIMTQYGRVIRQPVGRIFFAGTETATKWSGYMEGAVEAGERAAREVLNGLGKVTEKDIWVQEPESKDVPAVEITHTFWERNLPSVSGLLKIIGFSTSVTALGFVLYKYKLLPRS

MV4-11 [5] = assay: Cytotoxicity against human MV4-11 cells assessed as growth inhibition after 72 hrs by CellTiter-Fluor Cell Viability assay; format: functional, cell-based; details: MV4-11, 72 h
[6] = biological target: Lysine-specific histone demethylase 1A (Homo sapiens) (UniProt O60341); assay: Inhibition of LSD1 in human NB4 cells assessed as induction of ITGAM mRNA expression at IC50 after 24 hrs by quantitative RT-PCR analysis relative to vehicle-treated control; format: cell-based; details: NB-4
[7] = biological target: LSD1/CoREST complex (Homo sapiens) (UniProt O60341+Q9UKL0); assay: Potency index, ratio of trans-benzyl 1-(4-(2-aminocyclopropyl)phenylamino)-1-oxo-3-phenylpropan-2-ylcarbamate hydrochloride IC50 to compound IC50 for human recombinant LSD1/CoREST protein expressed in Escherichia coli
Sequence of LSD1/CoREST complex (Homo sapiens) (Q9UKL0 whole entry, looked up, other chains not shown): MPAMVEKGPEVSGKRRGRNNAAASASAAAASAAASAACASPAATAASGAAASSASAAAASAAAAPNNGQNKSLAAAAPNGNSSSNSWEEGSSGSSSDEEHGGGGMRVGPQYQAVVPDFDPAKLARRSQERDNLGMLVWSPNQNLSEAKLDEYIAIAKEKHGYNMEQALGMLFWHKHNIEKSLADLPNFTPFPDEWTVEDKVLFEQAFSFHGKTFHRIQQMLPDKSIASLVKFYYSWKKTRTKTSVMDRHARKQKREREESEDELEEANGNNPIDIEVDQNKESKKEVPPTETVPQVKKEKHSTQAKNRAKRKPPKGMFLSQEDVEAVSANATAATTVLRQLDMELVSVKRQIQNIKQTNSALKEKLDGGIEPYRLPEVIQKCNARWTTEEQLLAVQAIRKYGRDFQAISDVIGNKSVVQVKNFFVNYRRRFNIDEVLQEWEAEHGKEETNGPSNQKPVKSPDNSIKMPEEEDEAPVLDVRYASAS

Homo sapiens = species on record: Homo sapiens; assay: Selectivity ratio of IC50 for human recombinant MAO A to IC50 for human recombinant LSD1/CoREST
[8] = Cytotoxicity against human NB4 cells assessed as growth inhibition after 72 hrs by CellTiter-Fluor Cell Viability assay; format: functional, cell-based; details: NB-4, 72 h
MV4-11 [9] = assay: Potency index, ratio of trans-benzyl 1-(4-(2-aminocyclopropyl)phenylamino)-1-oxo-3-phenylpropan-2-ylcarbamate hydrochloride IC50 to compound IC50 for human MV4-11 cells; format: functional
NB-4 = assay: Potency index, ratio of trans-benzyl 1-(4-(2-aminocyclopropyl)phenylamino)-1-oxo-3-phenylpropan-2-ylcarbamate hydrochloride IC50 to compound IC50 for human NB4 cells; format: functional

SMILES	IC50 (LSD1/CoREST complex) [nM]	IC50 [1] [nM]	inhibition at 100 µM [2] [%]	fold change (FC) [3]	IC50 [4] [nM]	IC50 (MV4-11 [5]) [nM]	fold change (FC) [6]	Ratio IC50 [7]	Ratio IC50 (Homo sapiens)	IC50 [8] [nM]	Ratio IC50 (MV4-11 [9])	Ratio IC50 (NB-4)
N[C@@H]1C[C@H]1c1ccc(NC(=O)c2cccn2C(=O)OCc2ccccc2)cc1 (relative stereo)	32	75800	56	< 6	260	6800	< 4	5	< 8			
Cl.N[C@@H]1C[C@H]1c1ccc(NC(=O)c2cc3ccccc3n2C(=O)OCc2ccccc2)cc1 (relative stereo)	40	> 60000		< 6	160	5900	< 4	3.7	< 8	6500	2	2
N[C@@H]1C[C@H]1c1ccc(NC(=O)CNC(=O)OCc2ccccc2)cc1 (relative stereo)	304											
N[C@@H]1C[C@H]1c1ccc(NC(=O)C2CCCN2C(=O)OCc2ccccc2)cc1 (relative stereo)	61							2				
N[C@@H]1C[C@H]1c1ccc(NC(=O)C(Cc2ccccc2)NC(=O)OCc2ccccc2)cc1 (relative stereo)						10200				17400		
N[C@@H]1C[C@H]1c1ccc(NC(=O)c2cc3ccccc3n2CC(=O)Nc2ccccc2)cc1 (relative stereo)	87			< 6			< 4	2				
N[C@@H]1C[C@H]1c1ccc(NC(=O)c2cccn2CC(=O)c2ccccc2)cc1 (relative stereo)	1320											
N[C@@H]1C[C@H]1c1ccc(NC(=O)c2cccn2CC(=O)Nc2ccccc2)cc1 (relative stereo)	125			< 6			< 4					
N[C@@H]1C[C@H]1c1ccc(NC(=O)c2cc3ccccc3[nH]2)cc1	65			< 6			< 4	2				
N[C@@H]1C[C@H]1c1ccc(NC(=O)c2ccc[nH]2)cc1	163			< 6			< 4					
Cl.N[C@@H]1C[C@H]1c1ccc(NC(=O)c2cn(C(=O)OCc3ccccc3)c3ccccc23)cc1 (relative stereo)	86	> 70000		< 6	460	2500	< 4	1.7	< 8	9300	2	2
N[C@@H]1C[C@H]1c1ccc(NC(=O)c2ccn(C(=O)OCc3ccccc3)c2)cc1	50	3900		< 6	110	15200	< 4	3	< 8	22300		
N[C@@H]1C[C@H]1c1ccc(NC(=O)c2cc3ccccc3n2CC(=O)c2ccccc2)cc1 (relative stereo)	853											
N[C@@H]1C[C@H]1c1ccc(NC(=O)c2cc3ccccc3n2CC(=O)NCc2ccccc2)cc1 (relative stereo)	308											
N[C@@H]1C[C@H]1c1ccc(NC(=O)c2cccn2CC(=O)NCc2ccccc2)cc1 (relative stereo)	155			< 6			< 4					
